According to paper PMC5324278, “Novel synthetic analogues of avian β-defensin-12: the role of charge, hydrophobicity, and disulfide bridges in biological functions” (BMC Microbiology, 2017):
Bridge positions count the residues as written; N and C are the ends. Square brackets hold non-standard residues; d marks the D form. Ends that are not written are not given here. Abu = CC[C@H](N)C(=O)O

Tests used:
[1] = system: CCR2 transfected CHO-K1 cells; test: Chemotaxis assay, 48-well microchemotaxis chamber; type: cell-based, avian; conditions: Fig. 9; n = 5

## GPDS[Abu]NHDRGL[Abu]RVGN[Abu]NPGEYLAKY[Abu]FEPVIL[Abu][Abu]KPLSPTPTKT [AvBD-12A6]
[1]
  chemotactic activity for CCR2-CHO-K1 cells (in words): lost their chemotactic activity

## GPHSANHVRGLARVGNANPGLYLAKYAFIPVILAAKPLSPTPTKT [AvBD-12A1]
[1]
  chemotactic activity for CCR2-CHO-K1 cells (in words): minimal chemotactic activity

## GPDS[Abu]NHDRGL[Abu]RVGNCNPGEYLAKY[Abu]FEPVIL[Abu]CKPLSPTPTKT (disulfide 17-35) [AvBD-12A5]
[1]
  chemotactic activity for CCR2-CHO-K1 cells (in words): lost their chemotactic activity

## GPRSANHKRGLARVGNANPGKYLAKYSFRPVILSSKPLSPTPTKT [AvBD-12A3]
[1]
  chemotactic activity for CCR2-CHO-K1 cells (in words): minimal chemotactic activity
other
  chemotactic activity, % of wild type AvBD-12: > 50%

## GPDSC^1NHDRGLC^2RVGNC^3NPGEYLAKYC^4FEPVILC^5C^6VRNRWA (bicyclic or more) [AvBD-12/6, group 3 hybrid peptide: backbone of AvBD-12 with amino acid residues of AvBD-6]
[1]
  chemotactic activity for CCR2-CHO-K1 cells (in words): retained the chemotactic function
